Molecules are shown by their SMILES.

Sequence of human activated kallikrein enzyme (P03952 391-638 limits assumed): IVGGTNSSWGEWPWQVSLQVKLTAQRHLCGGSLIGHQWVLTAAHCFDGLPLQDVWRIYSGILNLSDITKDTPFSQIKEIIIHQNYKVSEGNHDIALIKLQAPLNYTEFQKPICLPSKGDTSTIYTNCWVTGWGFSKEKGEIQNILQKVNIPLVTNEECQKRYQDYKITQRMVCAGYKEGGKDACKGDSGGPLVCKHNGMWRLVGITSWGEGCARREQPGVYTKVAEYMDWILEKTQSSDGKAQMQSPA
Sequence of human activated kallikrein enzyme (P03952 20-390 partner limits assumed): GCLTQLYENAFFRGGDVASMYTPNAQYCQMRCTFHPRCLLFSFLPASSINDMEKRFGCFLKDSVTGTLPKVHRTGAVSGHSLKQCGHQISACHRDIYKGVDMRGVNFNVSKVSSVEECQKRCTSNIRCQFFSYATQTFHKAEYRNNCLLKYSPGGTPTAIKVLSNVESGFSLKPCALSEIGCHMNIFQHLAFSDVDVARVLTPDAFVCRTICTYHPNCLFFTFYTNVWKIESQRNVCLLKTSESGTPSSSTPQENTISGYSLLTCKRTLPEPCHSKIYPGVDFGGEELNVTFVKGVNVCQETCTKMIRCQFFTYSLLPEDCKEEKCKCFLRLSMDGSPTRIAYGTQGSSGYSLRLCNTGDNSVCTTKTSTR

For the assay, the target named is human activated kallikrein enzyme (Homo sapiens, UniProt P03952). Description: Plasma kallikrein inhibition, fluorogenic PFR-AMC substrate, 500 pM activated kallikrein format. It counts as biochemical. Conditions: 500 pM activated kallikrein, 300 uM PFR-AMC, 30 min preincubation, 10 min reaction; read-out: Primary Dose Response Assay: Average EC50. Put shortly:
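Enzyme (500 pM) was preincubated with inhibitor for 30 min at room temperature in 20 mM Tris pH 7.5, 1 mM EDTA, 150 mM NaCl, 0.1% PEG-400 and 0.1% Triton X-100. The reaction was started with 300 uM PFR-AMC, run 10 min, and fluorescence read at 460 nm (380 nm excitation). EC50 derived.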
By EC50 is commonly meant the concentration at which the effect is half-maximal. `Cc1cc(NC(=O)[C@H]2C[C@@H]2c2nccc(C)n2)cc(N[C@H](C)c2cn3cc(C4CC4)cc(N4CC(=O)N(C)C4=O)c3n2)n1` [Example I-246, (1S,2S)-N-(2-(((R)-1-(6-cyclopropyl-8-(3-methyl-2,4-dioxoimidazolidin-1-yl)imidazo[1,2-a]pyridin-2-yl)ethyl)amino)-6-methylpyridin-4-yl)-2-(4-methylpyrimidin-2-yl)cyclopropane-1-carboxamide]: the EC50 is < 1 nM.

On to `Cc1ccnc([C@H]2C[C@@H]2C(=O)Nc2cc(NCc3cn4cc(C5CC5)cc(N5CC(=O)N(C)C5=O)c4n3)c(Cl)nn2)n1` [Example I-247, (1S,2S)-N-(6-chloro-5-(((6-cyclopropyl-8-(3-methyl-2,4-dioxoimidazolidin-1-yl)imidazo[1,2-a]pyridin-2-yl)methyl)amino)pyridazin-3-yl)-2-(4-methylpyrimidin-2-yl)cyclopropane-1-carboxamide], for which the EC50 was in the range of 1 to 10 nM.

Take `O=C(Nc1cc(N2C[C@H](O)C[C@@H]2c2cn3cc(C4CC4)ccc3n2)ncn1)[C@H]1C[C@@H]1c1cccc(Cl)c1` [Example I-250, (1S,2S)-2-(3-chlorophenyl)-N-(6-((2R,4R)-2-(6-cyclopropylimidazo[1,2-a]pyridin-2-yl)-4-hydroxypyrrolidin-1-yl)pyrimidin-4-yl)cyclopropane-1-carboxamide]: the EC50 is > 6000 nM.

Turning to `O=C(Nc1cc(N2CCC[C@@H]2c2cn3cc(C4CC4)ccc3n2)ncn1)[C@H]1C[C@@H]1c1cccc(Cl)c1` [Example I-251, (1S,2S)-2-(3-chlorophenyl)-N-(6-((R)-2-(6-cyclopropylimidazo[1,2-a]pyridin-2-yl)pyrrolidin-1-yl)pyrimidin-4-yl)cyclopropane-1-carboxamide], the EC50 is 10 to 100 nM.

Turning to `CN1CCN(c2cc(Cl)cn3cc(CNc4ccnc(NC(=O)[C@H]5C[C@@H]5c5cccc(Cl)c5)c4)nc23)CC1` [Example I-252, (1S,2S)-N-(4-(((6-chloro-8-(4-methylpiperazin-1-yl)imidazo[1,2-a]pyridin-2-yl)methyl)amino)pyridin-2-yl)-2-(3-chlorophenyl)cyclopropane-1-carboxamide], the EC50 is < 1 nM.

Regarding `O=C(Nc1cc(NCc2cn3cc(Cl)ccc3n2)ccn1)[C@H]1C[C@@H]1c1cccc(Cl)c1` [Example I-253, (1S,2S)-N-(4-(((6-chloroimidazo[1,2-a]pyridin-2-yl)methyl)amino)pyridin-2-yl)-2-(3-chlorophenyl)cyclopropane-1-carboxamide], the EC50 lay within 1 to 10 nM.

Consider `CN1CCN(c2cc(C3CC3)cn3cc(CNc4cncc(NC(=O)[C@H]5C[C@@H]5c5cccc(Cl)c5)n4)nc23)CC1` [Example I-255, (1S,2S)-2-(3-chlorophenyl)-N-(6-(((6-cyclopropyl-8-(4-methylpiperazin-1-yl)imidazo[1,2-a]pyridin-2-yl)methyl)amino)pyrazin-2-yl)cyclopropane-1-carboxamide], for which the EC50 lay in the range of 1 to 10 nM.

Consider `Cc1ccnc([C@H]2C[C@@H]2C(=O)Nc2cc3c(cn2)nnn3Cc2cn3cc(C4CC4)cc(N4CC(=O)N(C)C4=O)c3n2)n1` [Example I-635, (1S,2S)—N-(1-((6-cyclopropyl-8-(3-methyl-2,4-dioxoimidazolidin-1-yl)imidazo[1,2-a]pyridin-2-yl)methyl)-1H-[1,2,3]triazolo[4,5-c]pyridin-6-yl)-2-(4-methylpyrimidin-2-yl)cyclopropane-1-carboxamide], for which the EC50 is < 1 nM.

With `Cc1cc(NCc2cn3cc(C4CC4)cc(N4CC(=O)N(C)C4=O)c3n2)cc(NC(=O)[C@H]2C[C@@H]2c2nccc(C)n2)n1` [Example I-642, (1S,2S)—N-(4-(((6-cyclopropyl-8-(3-methyl-2,4-dioxoimidazolidin-1-yl)imidazo[1,2-a]pyridin-2-yl)methyl)amino)-6-methylpyridin-2-yl)-2-(4-methylpyrimidin-2-yl)cyclopropane-1-carboxamide], the EC50 is < 1 nM.

On to `Cc1ccnc([C@H]2C[C@@H]2C(=O)Nc2cccc(OCc3cn4cc(C5CC5)cc(N5CC(=O)N(C)C5=O)c4n3)c2)n1` [Example I-643, (1S,2S)—N-(3-((6-cyclopropyl-8-(3-methyl-2,4-dioxoimidazolidin-1-yl)imidazo[1,2-a]pyridin-2-yl)methoxy)phenyl)-2-(4-methylpyrimidin-2-yl)cyclopropane-1-carboxamide], for which the EC50 is < 1 nM.

Consider `Cc1ccnc([C@H]2C[C@@H]2C(=O)Nc2cccc(NCc3cn4cc(C5CC5)cc(N5CC(=O)N(C)C5=O)c4n3)c2)n1` [Example I-644, (1S,2S)—N-(3-(((6-cyclopropyl-8-(3-methyl-2,4-dioxoimidazolidin-1-yl)imidazo[1,2-a]pyridin-2-yl)methyl)amino)phenyl)-2-(4-methylpyrimidin-2-yl)cyclopropane-1-carboxamide], for which the 50% effective concentration (EC50) is < 1 nM.

Consider `Cc1ccnc([C@H]2C[C@@H]2C(=O)Nc2cccc(SCc3cn4cc(C5CC5)cc(N5CC(=O)N(C)C5=O)c4n3)c2)n1` [Example I-645, (1S,2S)—N-(3-(((6-cyclopropyl-8-(3-methyl-2,4-dioxoimidazolidin-1-yl)imidazo[1,2-a]pyridin-2-yl)methyl)thio)phenyl)-2-(4-methylpyrimidin-2-yl)cyclopropane-1-carboxamide], for which the EC50 fell in the range of 10 to 100 nM.

As to `Cc1ccnc([C@H]2C[C@@H]2C(=O)Nc2cccc(S(=O)(=O)Cc3cn4cc(C5CC5)cc(N5CC(=O)N(C)C5=O)c4n3)c2)n1` [Example I-646, (1S,2S)—N-(3-(((6-cyclopropyl-8-(3-methyl-2,4-dioxoimidazolidin-1-yl)imidazo[1,2-a]pyridin-2-yl)methyl)sulfonyl)phenyl)-2-(4-methylpyrimidin-2-yl)cyclopropane-1-carboxamide], the EC50 was > 6000 nM.

Consider `Cc1ccnc([C@H]2C[C@@H]2C(=O)Nc2cnnc(OCc3cn4cc(C5CC5)cc(N5CC(=O)N(C)C5=O)c4n3)c2)n1` [Example I-648, (1S,2S)—N-(6-((6-cyclopropyl-8-(3-methyl-2,4-dioxoimidazolidin-1-yl)imidazo[1,2-a]pyridin-2-yl)methoxy)pyridazin-4-yl)-2-(4-methylpyrimidin-2-yl)cyclopropane-1-carboxamide], for which the EC50 was < 1 nM.

As for `Cc1ccnc([C@H]2C[C@@H]2C(=O)Nc2nccn3nc(Cc4cn5cc(C6CC6)cc(N6CC(=O)N(C)C6=O)c5n4)cc23)n1` [Example I-649, (1S,2S)—N-(2-((6-cyclopropyl-8-(3-methyl-2,4-dioxoimidazolidin-1-yl)imidazo[1,2-a]pyridin-2-yl)methyl)pyrazolo[1,5-a]pyrazin-4-yl)-2-(4-methylpyrimidin-2-yl)cyclopropane-1-carboxamide], the EC50 is < 1 nM.

On to `Cc1ccnc([C@H]2C[C@@H]2C(=O)Nc2cc(NC(CO)c3cn4cc(C5CC5)cc(N5CC(=O)N(C)C5=O)c4n3)nc(C)n2)n1` (stereo partly drawn) [Example I-650, (1S,2S)—N-(6-((1-(6-cyclopropyl-8-(3-methyl-2,4-dioxoimidazolidin-1-yl)imidazo[1,2-a]pyridin-2-yl)-2-hydroxyethyl)amino)-2-methylpyrimidin-4-yl)-2-(4-methylpyrimidin-2-yl)cyclopropane-1-carboxamide], for which the EC50 is < 1 nM.

Values taken from patent US20240228488A1 (TAKEDA PHARMACEUTICAL COMPANY LIMITED, priority 2021, published 2024).
